Assay results published in patent publication US20180028487A1, “DERMATOLOGICAL FORMULATIONS OF 2-(2-ETHOXY-2-OXOETHYL)(METHYL)AMINO-2-OXOETHYL 5-(TETRADECYLOXY)FURAN-2-CARBOXYLATE” (Dermira Inc., priority 2016, published 2018).
One block for each compound: values may come before it.

Tests used:
[1] = tested on: acne vulgaris on the face; test: Dose range study, efficacy (Example 5); format: in vivo, human; conditions: for LS mean change in noninflammatory lesion counts: Week 12; for LS mean change in inflammatory lesion counts / percentage of subjects achieving minimum 2-grade improvement in IGA score: baseline to Week 12
Experimental: Dose ranges were determined in adult subjects with acne vulgaris on the face. The study was a randomized, vehicle controlled, parallel group study designed to assess the efficacy and safety of the active formulations comprising a compound of Formula (Ia) at a concentration of 7.5% BID, 7.5% QD, and 4.0% QD, respectively. The results were compared to those of vehicle formulation (BID or QD) on subjects with moderate to severe facial acne. A total of 420 adult subjects were randomized to active formulations (7.5% BID, 7.5% QD, and 4.0% QD) and vehicle (BID and QD) in a 2:2:2:1:1 fashion. Study treatments continued for 12 weeks. Subjects returned to the study clinic at Weeks 1, 2 (phone call only), 4, 8 and 12 (study exit). Primary efficacy endpoints for this study were 1) the mean absolute change from baseline to Week 12 in inflammatory and noninflammatory lesion counts and 2) the proportion of subjects who achieved a 2-grade improvement in the IGA from baseline to Week 12. Absolute change from baseline to Week 12 in inflammatory and non-inflammatory lesion counts was analyzed using an analysis of covariance (ANCOVA) model with a factor of treatment and the respective baseline lesion count as a covariate. The proportion of subjects who are dichotomized to success (minimum 2-grade improvement from baseline in IGA score) at Week 12 was analyzed using a Cochran-Mantel-Haenszel (CMH) test. Exploratory analyses were conducted for linearity of a dose response for the proportion of subjects dichotomized to an IGA success.

[2] = Dose range study, pharmacokinetics: plasma concentrations (Example 5); format: in vivo, human; conditions: for systemic absorption: topical application at 7.5% strength, twice daily for 12 weeks
Experimental: A subset of study centers enrolled subjects for an assessment of PK. Blood was to be collected from approximately 10 subjects per treatment group. At the Day 1 and Week 8 visits, a predose blood sample was collected prior to the first application of study drug for the day; samples were then collected at 1, 2, 3, and 4 hours after application of study drug.

[3] = Dose range study, safety and tolerability (Example 5); format: in vivo, human; conditions: 4.0% QD, 7.5% QD and 7.5% BID, 12-week treatment period
Experimental: Safety was assessed through adverse events (AEs), local skin responses (LSRs, determined by the presence and severity of erythema, dryness, peeling, burning/stinging, and pruritus), laboratory tests (serum chemistry, and hematology), vital signs, and physical examinations.

[4] = Solubility in solvents / vehicle; format: physicochemical
Description: In various embodiments, the dermatologically acceptable vehicle comprises dimethyl isosorbide and one or more alcohols. […] DMI is freely miscible with alcohols such as ethanol, isopropanol (IPA), polyols such as polyethylene glycol (PEG 200 or PEG 400), or a mixture thereof. By adjusting the relevant amounts of DMI and the alcohol(s), the solubility and saturation of the active ingredient in the dermatological formulation can be adjusted to maximize the thermodynamic activity of the active ingredient in the gel. In a specific embodiment, the dermatologically acceptable vehicle comprises, by weight ratios, 50 parts ethanol, 20 parts IPA, 15.5 parts PEG400, and 12.5 parts DMI. The vehicle is typically a clear gel, and bears the same appearance with or without the active ingredient.
In certain embodiment, the crystalline product form is a white crystalline solid with a low-melting point (64-66° C.), having solubility of about 90 mg/g (±5 mg/g) in a solvent system comprising Ethanol/IPA/PEG 400/DMI at 50/20/15.5/12.5 (w/w).

[5] = Stability studies on non-GMP and GMP material; format: physicochemical
Experimental: Stability studies conducted on non-GMP and GMP material have shown chemical stability the compound of Formula (Ia) for 24 months at 5° C. and 25° C./60% Relative Humidity (RH); and for 6 months at 40° C./75% RH.

[6] = cited from earlier work

plasma concentration of Compound of Formula (Ia) ([2]; Day 1, topical, all but one subject): undetectable
plasma concentration of Compound of Formula (Ia) ([2]; Week 8, all tested subjects): undetectable
concentration at 2 h ([2]; human, plasma, topical, Day 1, one subject, one time point (2 hours post-dosing), read-out: plasma concentration of Compound of Formula (Ia)): 0.304 ng/mL
systemic absorption [2]: little or no
solubility ([4]; crystalline product form, solvent system Ethanol/IPA/PEG 400/DMI at 50/20/15.5/12.5 (w/w)): about 90 mg/g
solubility ([4]; in dimethyl isosorbide (DMI)): about 125 mg/g
chemical stability ([5]; 5° C.): 24 months
stability of the crystal form ([5]; 5° C.): up to 36 months
stability of the crystal form ([5]; 25° C./60% RH): up to 36 months
chemical stability ([5]; 25° C./60% Relative Humidity (RH)): 24 months
stability of the crystal form ([5]; 30° C./65% RH): up to 27 months
chemical stability ([5]; 40° C./75% RH): 6 months
SMILES: CCCCCCCCCCCCCCOc1ccc(C(=O)OCC(=O)N(C)CC(=O)OCC)o1 [Formula (Ia), 2-((2-ethoxy-2-oxoethyl)(methyl)amino)-2-oxoethyl 5 (tetradecyloxy) furan-2-carboxylate]
LS mean change in noninflammatory lesion counts ([1]; 4.0% QD): −15.3
LS mean change in inflammatory lesion counts ([1]; 4.0% QD): −14.6
percentage of subjects achieving minimum 2-grade improvement in IGA score ([1]; 4.0% QD): 21.6%
LS mean change in noninflammatory lesion counts ([1]; 7.5% BID): −17.5
LS mean change in inflammatory lesion counts ([1]; 7.5% BID): −15.0
percentage of subjects achieving minimum 2-grade improvement in IGA score ([1]; 7.5% BID): 25.9%
LS mean change in noninflammatory lesion counts ([1]; 7.5% QD): −13.4
LS mean change in inflammatory lesion counts ([1]; 7.5% QD): −14.5
tolerability [3]: well tolerated

systemic absorption [2]: little or no
SMILES: CCCCCCCCCCCCCCOc1ccc(C(=O)O)o1 [TOFA, 5-(tetradecyloxy)-2-furoic acid, reference compound]
bioavailability through the skin [6]: poor
